According to US10239849B2 (Merck Sharp & Dohme Corp., priority 2015, dated 2019):
pEC50: −log10 of the molar value.

Legend:
[1] = target: T1, glutathione-S-transferase (GST) tagged LXRalpha LBD (ligand binding domain) (Homo sapiens, UniProt Q13133); test: LanthaScreen TR-FRET Liver X Receptor Coactivator Assay, LXR alpha-LBD; assay type: biochemical; details: for Emax: read-out: LXR alpha activity at max dose (%) (Emax); for pEC50: potency (Inflection Point) of co-activator recruitment, TR-FRET, read-out: LXR alpha IP
T1 construct: purchased Invitrogen pv4655
T1 sequence (Q13133 209-447 limits assumed): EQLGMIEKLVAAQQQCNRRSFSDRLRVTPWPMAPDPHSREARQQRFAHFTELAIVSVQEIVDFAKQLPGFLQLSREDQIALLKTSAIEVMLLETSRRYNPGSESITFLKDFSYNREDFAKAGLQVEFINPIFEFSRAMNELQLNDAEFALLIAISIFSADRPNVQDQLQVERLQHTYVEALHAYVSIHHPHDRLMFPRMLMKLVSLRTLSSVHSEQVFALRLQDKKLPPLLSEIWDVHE
Method: (§1) While running the LanthaScreen™ TR-FRET Liver X Receptor Coactivator Assay, LXR alpha-LBD or LXR beta-LBD was added to ligand test compounds followed by addition of a mixture of a fluorescein-labelled coactivator peptide and terbium-conjugated anti-GST antibody. After an incubation period at room temperature, TR-FRET (time-resolved fluorescence resonance energy transfer) was measured using a filter-based instrument capable of TR-FRET, e.g. PerkinElmer Envision.

[2] = target: T2, glutathione-S-transferase (GST) tagged LXRbeta LBD (ligand binding domain) (Homo sapiens, UniProt P55055); test: LanthaScreen TR-FRET Liver X Receptor Coactivator Assay, LXR beta-LBD; assay type: biochemical; details: for Emax: read-out: LXR beta activity at max dose (%) (Emax); for pEC50: potency (Inflection Point) of co-activator recruitment, TR-FRET, read-out: LXR beta IP
T2 construct: purchased Invitrogen pv4658.pps
T2 sequence (P55055 222-460 limits assumed): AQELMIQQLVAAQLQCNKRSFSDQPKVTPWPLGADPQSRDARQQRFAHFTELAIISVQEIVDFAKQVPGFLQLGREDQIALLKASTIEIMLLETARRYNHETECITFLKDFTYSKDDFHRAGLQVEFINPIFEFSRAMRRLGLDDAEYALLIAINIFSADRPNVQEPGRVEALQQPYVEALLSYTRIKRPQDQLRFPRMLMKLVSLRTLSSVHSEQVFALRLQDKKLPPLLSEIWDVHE
Method: as §1

[3] = efficacy in relation to reference dual agonist T1317

Row | Compound | Emax [1, 3] | pEC50 [1] | Emax [2, 3] | pEC50 [2] | LXR alpha activity at max dose (%) (Emax) [1, 3] | LXR beta activity at max dose (%) (Emax) [2, 3]
1 | CC(C)C(O)(C(=O)N1CCN(c2ncc(-c3cc(Cl)c(C(=O)N(C)C)c(Cl)c3)cc2C#N)CC1)C(F)(F)F (single isomer, unassigned) [Example 7-5, 2,6-dichloro-4-(5-cyano-6-{4-[2-hydroxy-3-methyl-2-(trifluoromethyl)butanoyl]piperazin-1-yl}pyridin-3-yl)-N,N-dimethylbenzamide] | 41% | 6.03 | 93% | 7.92 | – | –
2 | CC(C)C(O)(C(=O)N1CCN(c2ncc(-c3cc(Cl)c(C(=O)N(C)C)c(Cl)c3)cc2C#N)CC1)C(F)(F)F (single isomer, unassigned) [Example 7-6, 2,6-dichloro-4-(5-cyano-6-{4-[2-hydroxy-3-methyl-2-(trifluoromethyl)butanoyl]piperazin-1-yl}pyridin-3-yl)-N,N-dimethylbenzamide] | – | 6.12 | – | 7.47 | 28% | 79%
3 | CN(C)C(=O)c1ccc(-c2cnc(N3CCN(S(=O)(=O)c4c(Cl)cccc4Cl)CC3)c(C#N)c2)cc1Cl [Example 1-1, 2-chloro-4-(5-cyano-6-{4-[(2,6-dichlorophenyl)sulfonyl]piperazin-1-yl}pyridin-3-yl)-N,N-dimethylbenzamide] | 55% | 6.16 | 124% | 8.15 | – | –
4 | CN(C)C(=O)c1ccc(-c2cnc(N3CCN(S(=O)(=O)C4CC4)CC3)c(C#N)c2)cc1Cl [Example 1-2, 2-chloro-4-{5-cyano-6-[4-(cyclopropylsulfonyl)piperazin-1-yl]pyridin-3-yl}-N,N-dimethylbenzamide] | 37% | 4.65 | 68% | 6.27 | – | –
5 | CN(C)C(=O)c1ccc(-c2cnc(N3CCN(S(=O)(=O)C(F)F)CC3)c(C#N)c2)cc1Cl [Example 1-3, 2-chloro-4-(5-cyano-6-{4-[(difluoromethyl)sulfonyl]piperazin-1-yl}pyridin-3-yl)-N,N-dimethylbenzamide] | 52% | 4.98 | 93% | 6.70 | – | –
6 | CCC(C)S(=O)(=O)N1CCN(c2ncc(-c3ccc(C(=O)N(C)C)c(Cl)c3)cc2C#N)CC1 (centres unmarked) [Example 1-4, 2-chloro-4-(5-cyano-6-{4-[(1-methylpropyl)sulfonyl]piperazin-1-yl}pyridin-3-yl)-N,N-dimethylbenzamide] | 44% | 4.31 | 81% | 6.55 | – | –
7 | CN(C)C(=O)c1ccc(-c2cnc(N3CCN(S(=O)(=O)c4cccnc4)CC3)c(C#N)c2)cc1Cl [Example 1-5, 2-chloro-4-{5-cyano-6-[4-(pyridin-3-ylsulfonyl)piperazin-1-yl]pyridin-3-yl}-N,N-dimethylbenzamide] | 31% | 4.22 | 85% | 6.03 | – | –
8 | CN(C)C(=O)c1ccc(-c2cnc(N3CCN(S(=O)(=O)c4cccs4)CC3)c(C#N)c2)cc1Cl [Example 1-6, 2-chloro-4-{5-cyano-6-[4-(thiophen-2-ylsulfonyl)piperazin-1-yl]pyridin-3-yl}-N,N-dimethylbenzamide] | 23% | 5.16 | 77% | 7.51 | – | –
9 | CN(C)C(=O)c1ccc(-c2cnc(N3CCN(S(=O)(=O)C4CCCCC4)CC3)c(C#N)c2)cc1Cl [Example 1-7, 2-chloro-4-{5-cyano-6-[4-(cyclohexylsulfonyl)piperazin-1-yl]pyridin-3-yl}-N,N-dimethylbenzamide] | 39% | 4.85 | 79% | 6.47 | – | –
10 | CN(C)C(=O)c1ccc(-c2cnc(N3CCN(S(=O)(=O)c4ccccc4F)CC3)c(C#N)c2)cc1Cl [Example 1-8, 2-chloro-4-(5-cyano-6-{4-[(2-fluorophenyl)sulfonyl]piperazin-1-yl}pyridin-3-yl)-N,N-dimethylbenzamide] | 34% | 4.92 | 89% | 7.77 | – | –
11 | CN(C)C(=O)c1ccc(-c2cnc(N3CCN(S(=O)(=O)c4ccccc4C#N)CC3)c(C#N)c2)cc1Cl [Example 1-9, 2-chloro-4-(5-cyano-6-{4-[(2-cyanophenyl)sulfonyl]piperazin-1-yl}pyridin-3-yl)-N,N-dimethylbenzamide] | 46% | 6.21 | 123% | 7.66 | – | –
12 | CN(C)C(=O)c1ccc(-c2cnc(N3CCN(S(=O)(=O)Cc4ccccc4F)CC3)c(C#N)c2)cc1Cl [Example 1-10, 2-chloro-4-(5-cyano-6-{4-[(2-fluorobenzyl)sulfonyl]piperazin-1-yl}pyridin-3-yl)-N,N-dimethylbenzamide] | 18% | 6.13 | 65% | 6.79 | – | –
13 | CN(C)C(=O)c1ccc(-c2cnc(N3CCN(S(=O)(=O)c4ccccc4Cl)CC3)c(C#N)c2)cc1Cl [Example 1-11, 2-chloro-4-(6-{4-[(2-chlorophenyl)sulfonyl]piperazin-1-yl}-5-cyanopyridin-3-yl)-N,N-dimethylbenzamide] | 51% | 5.47 | 108% | 8.10 | – | –
14 | CN(C)C(=O)c1ccc(-c2cnc(N3CCN(S(=O)(=O)Cc4ccccc4Cl)CC3)c(C#N)c2)cc1Cl [Example 1-12, 2-chloro-4-(6-{4-[(2-chlorobenzyl)sulfonyl]piperazin-1-yl}-5-cyanopyridin-3-yl)-N,N-dimethylbenzamide] | 27% | 5.13 | 97% | 7.55 | – | –
15 | CN(C)C(=O)c1ccc(-c2cnc(N3CCN(S(=O)(=O)c4ccccc4C(F)(F)F)CC3)c(C#N)c2)cc1Cl [Example 1-13, 2-chloro-4-[5-cyano-6-(4-{[2-(trifluoromethyl)phenyl]sulfonyl}piperazin-1-yl)pyridin-3-yl]-N,N-dimethylbenzamide] | 60% | 6.00 | 127% | 7.96 | – | –
16 | CN(C)C(=O)c1ccc(-c2cnc(N3CCN(S(=O)(=O)c4ccccc4OC(F)(F)F)CC3)c(C#N)c2)cc1Cl [Example 1-14, 2-chloro-4-[5-cyano-6-(4-{[2-(trifluoromethoxy)phenyl]sulfonyl}piperazin-1-yl)pyridin-3-yl]-N,N-dimethylbenzamide] | 37% | 5.98 | 99% | 7.70 | – | –
17 | CC(C)S(=O)(=O)N1CCN(c2ncc(-c3ccc(C(=O)N(C)C)c(Cl)c3)cc2C#N)CC1 [Example 1-15, 2-chloro-4-(5-cyano-6-{4-[(1-methylethyl)sulfonyl]piperazin-1-yl}pyridin-3-yl)-N,N-dimethylbenzamide] | 43% | 4.71 | 86% | 6.36 | – | –
18 | CN(C)C(=O)c1ccc(-c2cnc(N3CCN(S(=O)(=O)c4ccccc4)CC3)c(C#N)c2)cc1Cl [Example 1-16, 2-chloro-4-{5-cyano-6-[4-(phenylsulfonyl)piperazin-1-yl]pyridin-3-yl}-N,N-dimethylbenzamide] | 63% | 4.30 | 69% | 6.84 | – | –
19 | CN(C)C(=O)c1ccc(-c2cnc(N3CCN(S(=O)(=O)c4c(F)cccc4F)CC3)c(C#N)c2)cc1Cl [Example 1-17, 2-chloro-4-(5-cyano-6-{4-[(2,6-difluorophenyl)sulfonyl]piperazin-1-yl}pyridin-3-yl)-N,N-dimethylbenzamide] | 36% | 5.32 | 98% | 7.37 | – | –
20 | CN(C)C(=O)c1ccc(-c2cnc(N3CCN(S(=O)(=O)c4c(Cl)cccc4C(F)(F)F)CC3)c(C#N)c2)cc1Cl [Example 1-18, 2-chloro-4-[6-(4-{[2-chloro-6-(trifluoromethyl)phenyl]sulfonyl}piperazin-1-yl)-5-cyanopyridin-3-yl]-N,N-dimethylbenzamide] | 62% | 5.78 | 126% | 6.82 | – | –
21 | CN(C)C(=O)c1ccc(-c2cnc(N3CCN(C(=O)c4c(F)cccc4F)CC3)c(C#N)c2)cc1Cl [Example 2-1, 2-chloro-4-(5-cyano-6-{4-[(2,6-difluorophenyl)carbonyl]piperazin-1-yl}pyridin-3-yl)-N,N-dimethylbenzamide] | 23% | 5.05 | 40% | 6.67 | – | –
22 | CN(C)C(=O)c1ccc(-c2ccc(N3CCN(C(=O)c4c(F)cccc4F)CC3)c(Cl)c2)cc1Cl [Example 4-1, 3,3′-dichloro-4′-{4-[(2,6-difluorophenyl)carbonyl]piperazin-1-yl}-N,N-dimethylbiphenyl-4-carboxamide] | – | – | 90% | 6.08 | – | –
